Reference: US12171813B2, “Methods of and compositions for reducing gene expression and/or activity” (Christiana Care Gene Editing Institute, Inc., priority 2021, dated 2024)

Tests used:
EGFR = experiment: cDNA PCR analysis of exon skipping / full-size transcript in EGFR; type: cell-based, Human; details: intron-targeting gRNA paired with L858R targeting CRISPR, compared to L858R targeting CRISPR alone
Experimental: After CRISPR reactions, total RNA was prepared, and cDNA synthesized for PCR amplification of the target region from EGFR. PCR-amplified DNA was then analyzed by electrophoresis through a 1% agarose gel for 75 minutes at 80v. DNA was stained with SYBR Safe. Lanes 1 and 13: NEB 2 Log Ladder; Lane 2: Scrambled gRNA; Lane 3: EGFR 21-22 SureKill gRNA 11 alone; Lane 4: EGFR 21-22 SureKill gRNA 13 alone; Lane 5: EGFR 21-22 SureKill gRNA 16 alone; Lane 6: EGFR 21-22 SureKill gRNA 17 alone; Lane 7: EGFR 21-22 SureKill gRNA 19 alone; Lane 8: EGFR 21-22 SureKill gRNA 22 alone; Lane 9: EGFR 21-22 SureKill gRNA 23 alone; Lane 10: EGFR 21-22 SureKill gRNA 27 alone; Lane 11: EGFR 21-22 SureKill gRNA 28 alone; Lane 12: EGFR 21-22 SureKill gRNA 29 alone. On the left side of the image are markers indicating DNA size in bp.
After CRISPR reactions, total RNA was prepared, and cDNA synthesized for semi-quantitative PCR amplification of the target region from EGFR. PCR amplification was performed for 25 cycles. PCR-amplified DNA was then analyzed by electrophoresis through a 1% agarose gel for 75 minutes at 80v. DNA was stained with SYBR Safe. […]
Transfections were carried out using the Lonza Nuclefector 4d. […] RNPs were complexed at 250:50 pmol for 30 minutes prior to transfection, during which time cells were harvested and counted. […]

EGFR gene = experiment: Screening of SureKill guide RNAs in the EGFR gene for ability to induce indels; type: cell-based; details: transfections of individual guide RNAs (spCas9 RNP); PDMR human lung adenocarcinoma cells with EGFR L858R; DECODR
Experimental: Human lung squamous cell carcinoma NCI-H1703 clone 44-25 cells were derived from NCI-H1703 cells (#CRL-5889) which were purchased from ATCC (Manassas, VA, USA). NCI-H1703 clone 44-25 cells contains R34G mutation (C 4 G) in NFE2L2 gene. H1703 clone 44-25 cells were cultured in ATCC formulation RPMI-1640 with 10% FBS. T75 flasks were used and cells were split 1:5 upon reaching 90% confluency. Human lung adenocarcinoma cells (Dist. Lot. No. LG0703-F948-PDC) were acquired from the National Institute of Health's National Cancer Institute's Patient-Derived Models Repository (PDMR). This PDMR cell line contains the L858R mutation (T 4 G) in the EGFR gene. The PDMR cells were maintained in Advanced DMEM/F12 media containing 10% FBS, 0.4 μg/mL hydrocortisone, 0.01 μg/mL EGF Recombinant Human Protein, 24 μg/mL adenine, and 2 mM L-Glutamine. T75s were used and cells were split 1:3 upon reaching 90% confluency. All cultures were maintained in cell culture incubators at 37° C. and 5% CO2.
Ribonucleoproteins (RNP) are complexed by incubating 250 pmol of purified synthetic gRNA (Synthego Corporation, Redwood City, CA) with 50 pmol of purified spCas9 (Synthego Corporation, Redwood City, CA) at room temperature in nuclease-free 1× TE buffer for 15 minutes.
Transfections were carried out using the Lonza Nuclefector 4d. Cultures in t75s at 90% confluence were split 1:2 24 hours prior to transfection. RNPs were complexed at 250:50 pmol for 30 minutes prior to transfection, during which time cells were harvested and counted. All reactions were 100 μL and contained 1 e6 cells. Lonza SF solution and Nucleofector program CM-130 were used in all transfections of the H1703 cell line. Lonza SE solution and Nucleofector program CA-137 were used in all transfections of the PDMR. After transfection, 500 μL of media that had been equilibrated to cell culture CO2 and temperature conditions was added to each 100 μL cuvettes. Cuvettes were then placed in the incubator. After 20 minutes, the entire content of each cuvette was seeded into 3 mL of media in a 6 well plate. After 72 hours, samples were dissociated using 200 μL Trypsin 0.25% for 5 minutes. 800 μL culture media was used to quench and split into 1.5 mL tubes each containing 500 μL of the sample. Tubes were spun at 300×g for 5 minutes. One of the tubes was placed in the −20° C. freezer and the other was resuspended in 500 μL of Trizol for RNA extraction and cDNA synthesis.
All sequencing was performed on the Applied Biosystems SeqStudio. The BigDye Terminator v3.1 Cycle Sequencing Kit was used to prepare samples for sequencing. Resulting sequences were analyzed with DECODR to determine indel rates (Bloh et al., CRISPR J. 4:120-31 (2021)).
Human EGFR is a frequently mutated gene that is associated with cancers. One of the most common mutations is L858R which results in the creation of a novel PAM site, making it a targetable sequence by CRISPR. Like the R34G mutation, the CRISPR designed to target the L858R mutation is not highly efficient on its own. By combining the L858R-targeting CRISPR with another CRISPR of high efficiency in a downstream intronic region, exon skipping can be induced, resulting in a higher efficiency of functional knockout than the L858R targeting CRISPR alone. To find a suitable gRNA to pair with the L858R targeting CRISPR, we selected the intron between exons 21 and 22 (FIG. 6). A series of gRNAs were created in this region and screened for their ability to induce indels, a measure of their activity using DECODR (Bloh et al., CRISPR J. 4:120-31 (2021)) (Table 3).
In Table 3, all sequences are listed from 5′ to 3′. Indel percent, a measure of CRISPR activity, is based on transfections of individual guide RNAs. All guide RNAs, with the exception of L858R, were designed in the intron between exons 21 and 22.

Substance: EGFR 21-22 SureKill gRNA 28: EGFR intron 21-22 guide RNA GCAGCCTGGTCCCTGGTGTC, SEQ ID NO:51 (listed as DNA, chemistry not given here)
- reduction in the full-size transcript (cDNA, semi-quantitative PCR 25 cycles) (EGFR): enhanced reduction in the full-size transcript
- indel % (EGFR gene): 97.6%
